Here are results for four molecules from patent US20100234351A1, “FUSED NITROGEN-COMPRISING HETEROCYCLIC COMPOUND” (TAKEDA PHARMACEUTICAL COMPANY LIMITED, priority 2006, published 2010).

Each structure is given as a SMILES string. Counter-ions that a name gives are not always drawn.

Assay [1] addresses T1, EGFR intracellular domain (Homo sapiens, UniProt P00533).
T1 construct: made in house; host or cells: SF-21 insect cells infected with recombinant baculovirus BAC-EGFR
Nature of the assay: Assay of EGFR kinase inhibitory activity. In kind it is biochemical. The following applies: compound 1.0 μM, poly-Glu:Tyr (4:1) substrate, [γ-32P]ATP, read-out: Inhibitory rate (%) at 1.0 μM. On the procedure: Human EGFR gene was cloned by RT-PCR using total RNA prepared from A431 cell as a template. The primer used for RT-PCR was prepared from base sequence (Genbank Accession No. X00588) information of EGFR gene, adding DYKDDDD base sequence encoding the peptide and a restriction enzyme recognition sequence to a base sequence (2191-3819 of Genbank Accession No. X00588 as a base, and corresponding to 669-1210 amino acid of Genbank Accession No. NP_005219 as a protein) encoding the EGFR intracellular domain, so that a DYKDDDD peptide tag would be attached to the N-terminus of the protein. The base sequence of the primer is shown in below.
The RT reaction was performed using Superscript First-Strand Synthesis System for RT-PCR (Invitrogen), and PCR reaction was performed using KOD-plus kit (TOYOBO). The obtained PCR product was electrophoresed on agarose gel (1%), and the DNA fragment amplified by PCR was recovered from the gel, and then digested with restriction enzymes Sal I and Sph I. The DNA treated with the restriction enzymes was electrophoresed on agarose gel (1%), and the obtained DNA fragment was recovered and ligated to plasmid pFASTBAC1 (Invitrogen) digested with restriction enzymes Sal I and Sph I to give expression plasmid pFB-EGFR. The base sequence of the inserted fragment was confirmed and found to be identical with the base sequence of the EGFR intracellular domain (2191-3819 of Genbank Accession X00588). Furthermore, virus stock BAG-EGFR of recombinant Baculovirus was prepared using BAC-TO-BAC Baculovirus Expression System (Invitrogen).
SF-21 cells were sown at 1×10^6 cells/mL to 1 L of Sf-900II SFM medium (Invitrogen) containing 10% fetal calf serum (trace), 50 mg/L Gentamicin (Invitrogen) and 0.1% Pluronic F-68 (Invitrogen), and cultured with shaking in a 2 L Erlenmeyer flask at 27° C., 100 rpm. After culture for 24 hr, recombinant Baculovirus BAC-EGFR (13.4 mL) was added thereto, and the cells were further cultured for 3 days. The culture medium was centrifuged at 2,000 rpm for 5 min to give virus infected cells. The infected cells were washed with phosphate buffered saline (Invitrogen), centrifuged under the same conditions, and preserved at −80° C. The cryopreserved cells were thawed in ice and suspended in 30 mL of buffer A containing Complete Protease Inhibitor (Boehringer) (50 mM tris buffer (pH 7.4) containing 20% Glycerol, 0.15 M NaCl). The cells were disrupted 3 times at 20,000 rpm for 30 sec using a polytron homogenizer (Kinematica). The disrupt was clarified by centrifugation at 40,000 rpm for 30 min and filtered through a 0.45 μm filter. The filtrate was passed through a column packed with 4 mL of Anti-FLAG M2 Affinity Gel (Sigma Aldrich Co.) at a flow rate of about 0.5 mL/min. The column was washed with buffer A, and eluted with buffer A containing 100 μg/mL of FLAG peptide. The eluate was concentrated with Vivaspin 20 having a molecular weight cut off of 30 K (Vivascience). The concentrate was purified by gel filtration using Hi-Load 16/60 Superdex 200 pg (GE Healthcare Bioscience) equilibrated with buffer A. The fractions containing EGFR intracellular domain were collected and cryopreserved at −80° C.
EGFR kinase reaction was carried out using a 96-well plate. As a buffer for Kinase reaction, a buffer of a composition of 50 mM Tris-HCl (pH 7.5), 5 mM MnCl2, 2 mM dithiothreitol and 0.01% Tween-20 was used. […]

In assay [2] the test system is human breast cancer cell BT-474. The experiment in a line: Inhibitory action on breast cancer cell BT-474 proliferation in vitro. Conditions: 120 h, BT-474 cells, cultured 5 days with compound, SRB staining of cell protein. In kind it is cell-based. On the procedure:
A suspension of human breast cancer cell BT-474 (100 μl (6,000 cells)) were plated to 96-well microplate and cultured in an incubator (37° C., 5% carbon dioxide). On the following day, 100 μl of a solution of each test compound previously diluted serially in 2-fold, was added to give indicated dose, and the cells were cultured for 5 days. The culture medium containing the test compound was removed, and the cells were washed, and fixed with 50% trichloroacetic acid, and 0.4% w/v) SRB solution (dissolved in 1% acetic acid) was added to stain the cell protein (Skehan et al., Journal of the National Cancer Institute, Vol. 82, pp. 1107-1112, 1990). After washing with a 1% acetic acid solution, 100 μl of Tris solution (10 mM) was added to extract the pigment and the absorbance was measured at a wavelength of 550 nm to quantify the amount of cells as protein content. Taking as 100% the protein content for the control group, which received no test compound solution, the ratio of the residual protein content for each treatment group was determined, and the compound concentration required to achieve 50% suppression of the residual cell content relative to the control (IC50 value) was calculated.

In assay [3] the target is T2, HER2 intracellular domain (Homo sapiens, UniProt P04626).
T2 construct: made in house; host or cells: SF-21 insect cells infected with recombinant baculovirus BAC-HER2
T2 sequence (P04626 676-1255): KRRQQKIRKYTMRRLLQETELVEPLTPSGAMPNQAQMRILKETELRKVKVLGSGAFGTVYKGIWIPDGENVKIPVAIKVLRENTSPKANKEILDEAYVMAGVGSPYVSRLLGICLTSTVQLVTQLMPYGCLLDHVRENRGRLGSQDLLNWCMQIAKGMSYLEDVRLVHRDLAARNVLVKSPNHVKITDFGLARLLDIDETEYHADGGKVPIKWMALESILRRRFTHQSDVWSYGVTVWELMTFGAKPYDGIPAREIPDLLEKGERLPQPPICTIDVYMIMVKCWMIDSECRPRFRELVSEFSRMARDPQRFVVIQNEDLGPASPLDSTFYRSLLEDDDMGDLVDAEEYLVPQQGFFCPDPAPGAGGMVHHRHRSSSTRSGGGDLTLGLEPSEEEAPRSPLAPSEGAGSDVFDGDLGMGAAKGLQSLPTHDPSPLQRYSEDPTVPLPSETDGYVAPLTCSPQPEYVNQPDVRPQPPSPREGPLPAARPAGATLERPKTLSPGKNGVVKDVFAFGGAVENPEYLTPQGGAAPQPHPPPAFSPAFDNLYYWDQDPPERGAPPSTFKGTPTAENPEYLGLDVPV
Nature of the assay: Measurement of HER2 kinase inhibitory activity. The class given is biochemical. The following applies: compound 1.0 μM, poly-Glu:Tyr (4:1) substrate, [γ-32P]ATP, read-out: Inhibitory rate (%) at 1.0 μM. On the procedure: Human HER2 gene was cloned by RT-PCR using total RNA prepared from MCF7 cells as a template. The primer used for RT-PCR was prepared from base sequence (Genbank Accession No. M11730) information of HER2 gene, adding base sequence encoding DYKDDDD peptide and a restriction enzyme recognition sequence to a nucleotide sequence (2176-3918 of Genbank Accession No. M11730 as a base, and corresponding to 676-1255 amino acid of Genbank Accession No. NP_004439 as a protein) encoding the HER2 intracellular domain region, so that a DYKDDDD peptide tag would be attached to the N-terminus of the protein. The base sequence of the primer is shown in below.
The RT reaction was performed using Superscript First-Strand Synthesis System for RT-PCR (Invitrogen) and the PCR reaction was performed using KOD-plus kit (TOYOBO). The obtained PCR product was electrophoresed on agarose gel (1%), and the DNA fragment amplified by PCR was recovered from the gel, and then digested with restriction enzymes Sal I and Sph I. The DNA treated with the restriction enzymes was electrophoresed on agarose gel (1%), and the obtained DNA fragment was recovered and ligated to plasmid pFASTBAC1 (Invitrogen) digested with restriction enzymes Sal I and Sph I to give expression plasmid pFB-HER2. The base sequence of the inserted fragment was confirmed and found to be identical with the base sequence of HER2 intracellular domain (2176-3918 of Genbank Accession M11730). Furthermore, using BAC-TO-BAC Baculovirus Expression System (Invitrogen), recombinant baculovirus BAC-HER2 was prepared.
SF-21 cells were sown at 1×10^6 cells/mL to 1 L of Sf-900II SFM medium (Invitrogen) containing 10% fetal calf serum (trace), 50 mg/L gentamicin (Invitrogen) and 0.1% Pluronic F-68 (Invitrogen), and cultured with shaking in 2 L volume Erlenmeyer flask at 27° C., 100 rpm. After culturing for 24 hr, recombinant baculovirus BAC-HER2 (13.4 mL) was added thereto, and the cells were further cultured for 3 days. The culture medium was centrifuged at 2,000 rpm for 5 min to give virus-infected cells. The infected cells were washed with phosphate buffered saline (Invitrogen), centrifuged under the same conditions, and preserved at −80° C. The cryopreserved cells were thawed in ice and suspended in buffer A (50 mM Tris buffer (30 mL, pH 7.4) containing 20% glycerol, 0.15 M NaCl) supplemented with Complete Protease Inhibitor (Boehringer). The cells were ruptured 3 times with a Polytron homogenizer (Kinematica) at 20,000 rpm for 30 sec. The disrupt was clarified by centrifugation at 40,000 rpm for 30 min and filtered with a 0.45 μm filter. The filtrate was passed through a column packed with Anti-FLAG M2 Affinity Gel (4 mL, Sigma Aldrich CO.) at a flow rate of about 0.5 mL/min. The column was washed with buffer A, and eluted with buffer A containing 100 μg/mL of FLAG peptide. The eluate was concentrated with Vivaspin 20 (Vivascience) having a molecular weight cut off of 30K. The concentrate was purified by gel filtration using Hi-Load 16/60 Superdex 200pg (GE Healthcare Bioscience) equilibrated with buffer A. The fractions containing HER2 intracellular domain were collected and cryopreserved at −80° C.
HER2 kinase reaction was carried out using 96-well plate. As a buffer for Kinase reaction, a buffer of a composition of 50 mM Tris-HCl (pH 7.5), 5 mM MnCl2, 2 mM dithiothreitol and 0.01% Tween-20 was used. The compound of the present invention was dissolved in dimethyl sulfoxide (DMSO), and diluted with a buffer for kinase reaction so that the DMSO concentration would become 0.1% during kinase reaction. The compound solution (10 μL) was mixed with a buffer for kinase reaction (20 μL) containing the HER2 intracellular domain (0.625 μg/mL) obtained in Experimental Example 1B and a polypeptide substrate poly-Glu:Tyr (4:1) (12.5 μg/mL, Sigma Ltd.) and the mixture was stood for 5 min at room temperature. […]

T1 sequence (P00533 669-1210): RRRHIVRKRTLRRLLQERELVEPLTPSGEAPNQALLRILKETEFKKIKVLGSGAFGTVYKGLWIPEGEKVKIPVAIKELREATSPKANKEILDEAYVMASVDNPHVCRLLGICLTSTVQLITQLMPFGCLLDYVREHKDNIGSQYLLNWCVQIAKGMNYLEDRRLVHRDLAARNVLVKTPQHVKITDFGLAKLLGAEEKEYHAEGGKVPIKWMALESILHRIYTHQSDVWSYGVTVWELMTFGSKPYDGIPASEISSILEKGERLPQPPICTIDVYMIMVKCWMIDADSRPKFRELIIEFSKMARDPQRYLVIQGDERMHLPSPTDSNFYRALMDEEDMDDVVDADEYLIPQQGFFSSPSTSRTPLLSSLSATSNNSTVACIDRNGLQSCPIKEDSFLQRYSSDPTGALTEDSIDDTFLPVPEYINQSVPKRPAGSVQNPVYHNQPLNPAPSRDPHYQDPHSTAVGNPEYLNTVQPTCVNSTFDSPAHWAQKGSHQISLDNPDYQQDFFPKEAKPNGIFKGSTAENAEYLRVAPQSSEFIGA

Turning to `O=C(NCCCn1ccnc1)C1=Cc2c(ncnc2Nc2ccc(Oc3cccc(C(F)(F)F)c3)c(Cl)c2)NCC1` [Example 115, 4-({3-chloro-4-[3-(trifluoromethyl)phenoxy]phenyl}amino)-N-[3-(1H-imidazol-1-yl)propyl]-8,9-dihydro-7H-pyrimido[4,5-b]azepine-6-carboxamide], in assay [1], the inhibition at 1 µM came to 95%.

In the case of `O=C(NCCOCCO)C1=Cc2c(ncnc2Nc2ccc(Oc3cccc(C(F)(F)F)c3)c(Cl)c2)NCC1` [Example 119, 4-({3-chloro-4-[3-(trifluoromethyl)phenoxy]phenyl}amino)-N-[2-(2-hydroxyethoxy)ethyl]-8,9-dihydro-7H-pyrimido[4,5-b]azepine-6-carboxamide], in assay [1], the inhibition at 1 µM worked out at 96%. Also, in assay [2], the IC50 was less than 0.1 µM.

Take `O=C(NCCOCCO)C1=Cc2c(ncnc2Nc2ccc(Oc3cccc(Cl)c3)c(Cl)c2)NCC1` [Example 143, 4-{[3-chloro-4-(3-chlorophenoxy)phenyl]amino}-N-[2-(2-hydroxyethoxy)ethyl]-8,9-dihydro-7H-pyrimido[4,5-b]azepine-6-carboxamide hydrochloride]: the inhibition at 1 µM in assay [1] was found to be 97%. Besides, in assay [2], the IC50 is less than 0.1 µM.

`COCCOCCNC(=O)C1=Cc2c(ncnc2Nc2ccc(Oc3cccc(C(F)(F)F)c3)c(Cl)c2)NCC1` [Example 122, 4-({3-chloro-4-[3-(trifluoromethyl)phenoxy]phenyl}amino)-N-[2-(2-methoxyethoxy)ethyl]-8,9-dihydro-7H-pyrimido[4,5-b]azepine-6-carboxamide]: the inhibition at 1 µM in assay [3] came to 96%. For the same molecule, in assay [2], the IC50 was less than 0.1 µM.

A word on the IC50: it is the concentration that inhibits the measured activity by half.
